From article PMC11455950, “Effects of SZV-2649, a new multiple ion channel inhibitor mexiletine analogue” (Scientific Reports, 2024)

Assays:
[1] = tested on: late sodium current (INaL); assay: Whole-cell patch-clamp, late sodium current in dog ventricular myocytes; type: cell-based; conditions: 10 µM, dog left ventricular myocytes
Method: (§1) The effects of SZV-2649 on transmemrane ionic currents were investigated in dog cardiac myocytes after a 5-minute superfusion of the drug.
The late sodium current (INaL) was investigated by application of 2-second-long test pulses to -20 mV from the holding potential of -120 mV with the pulsing cycle length of 5 s. In the internal (pipette) solution, KCl was replaced by 125 mM CsCl to block potassium currents and the external solution contained 1 µM nisoldipine, 0.5 µM HMR-1556 and 0.1 µM dofetilide in order to block ICaL, IKs and IKr currents, respectively.
(§2) Ventricular myocytes from Beagle dogs were enzymatically dissociated as described in detail previously. A single droplet of cell suspension was placed in a transparent recording chamber mounted on the stage of an inverted microscope (Olympus IX51, Olympus, Tokyo, Japan), and individual myocytes were allowed to settle and adhere to the chamber bottom for at least 5–10 min before superfusion was initiated and maintained by gravity. Only rod-shaped cells with clear striations were used. […]
(§3) The membrane currents were recorded with Axopatch-200B amplifiers (Molecular Devices, Sunnyvale, CA, USA) by means of the whole-cell configuration of the patch-clamp technique. […]

[2] = tested on: dog Purkinje fiber preparations; assay: Conventional microelectrode action potential recording, dog Purkinje fibers; conditions: CL = 500 ms, n = 10
Method: The effects of SZV-2649 on action potentials were studied in dog ventricular, atrial and Purkinje fiber preparations.
Action potentials were recorded in cardiac ventricular trabeculae and papillary muscle preparations obtained from the right ventricles of Beagle dogs (10–15 kg) of either sex using the conventional microelectrode technique. Dogs were sacrificed by iv. sedation with xylazine (1 mg/kg), followed by i.v. administration of 50 mg/kg pentobarbital. After the cornea reflex disapeared the chest was opened, and the heart was rapidly removed. The heart was immediately rinsed in oxygenated modified Locke’s solution containing (in mM): NaCl 128.3, KCl 4, CaCl2 1.8, MgCl2 0.42, NaHCO3 21.4, and glucose 10. The pH of this solution was set between 7.35 and 7.4 when gassed with the mixture of 95% O2 and 5% CO2 at 37 °C.
Isolated papillary muscle or atrial trabecula and Purkinje fiber preparations were obtained and prepared from the right ventricle and were individually mounted in a tissue chamber with the volume of 50 ml. Each preparation was initially stimulated through a pair of platinum electrodes in contact with the preparation using rectangular current pulses of 2 ms duration. These stimuli were delivered at a constant cycle length of 1000 ms for at least 60 min allowing the preparation to equilibrate before the measurements were initiated. Transmembrane potentials were recorded using conventional glass microelectrodes, filled with 3 M KCl and having tip resistances of 5–20 MΩ, connected to the input of a high impedance electrometer (Experimetria, type 309, Budapest, Hungary) which was coupled to a dual beam oscilloscope. […] Attempts were made to maintain the same impalement throughout each experiment. In case an impalement became dislodged, adjustment was attempted, and if the action potential characteristics of the re-established impalement deviated by less than 5% from the previous measurement, the experiment continued[64]–[67]. All measurements were carried out at 37 °C.

[3] = tested on: inward rectifier potassium (IK1) current; assay: Whole-cell patch-clamp, steady state current-voltage relation in dog ventricular myocytes; type: cell-based; conditions: 10 µM, dog left ventricular myocytes
Text: as §1
Figure 4D represents the steady state current-voltage relation after 300 ms pulses from − 100 mV to 60 mV using 10 mV increments applying 3-second pulsing cycle length from the holding potential of -90 mV.
as §2, §3
The inward rectifier (IK1), the transient outward (Ito), the rapid (IKr) and the slow (IKs) delayed rectifier potassium currents were recorded in HEPES-buffered Tyrode’s solution. […] When IKr was recorded, IKs was inhibited by using the selective IKs blocker HMR-1556 (0.5 µM). […]

conscious dogs = assay: Basic ECG parameters in conscious dogs; type: in vivo, dog
Method: The effects of SZV-2649 on the basic ECG parameters in conscious dogs were investigated. […] Beagle dogs of either sex weighing 12–14 kg were used for the experiments. ECG measurements were taken in conscious animals using the standard I-III leads. QTc was calculated using the Van de Water’s formula[61]. SZV-2649 (10 mg/kg) was applied by i.v. or oral administration.

[4] = tested on: dog right ventricular muscle preparations; assay: Conventional microelectrode action potential recording, dog ventricular muscle; conditions: 10 µM
[5] = intravenous 10 mg/kg, 30 min after administration, n = 6
[6] = per os 10 mg/kg, 1 h after administration, n = 7

With `CC(N)COc1c(I)cc(C#N)cc1I.Cl` (centres unmarked) [SZV-2649, 4-(2-aminopropoxy)-3,5-diiodobenzonitrile hydrochloride] as the compound, how does the “Effect on magnitude of INaL” value [1] read?
Its value is “significantly decreased”.

What about the APA ([2]; 5 µM) of the same compound?
Its APA is 123.8 ± 2.3 mV.

What about the APD50 ([2]; 5 µM) of the same compound?
The APD50 was 113.6 ± 5.6 ms.

And the APD90 ([2]; 5 µM)?
The APD90 was 217.4 ± 5.1 ms.

And the RP ([2]; 5 µM)?
The RP was −84.7 ± 1.7 mV.

And the Vmax ([2]; 5 µM)?
The Vmax was 507.4 ± 53.4 V/s.

What about the APA ([2]; 10 µM) of the same compound?
The APA was 119.2 ± 3.3 mV.

What about the APD50 ([2]; 10 µM) of the same compound?
The APD50 was 112.4 ± 7.9 ms.

And the APD90 ([2]; 10 µM)?
The APD90 was 223.4 ± 5.6 ms.

And the RP ([2]; 10 µM)?
Its RP is −86.0 ± 1.1 mV.

What about the Vmax ([2]; 10 µM) of the same compound?
The Vmax was 415.0 ± 28.9 V/s.

And the Vmax ([2]; […])?
The Vmax was 581.1 ± 39.0 V/s.

What about the “Effect on inward rectifier potassium (IK1) current, steady state current-voltage relation” value [3] of the same compound?
Its value is “no discernible effects”.

And the PQ (conscious dogs; [5])?
Its PQ is 150.6 ± 15.8 ms.

And the QRS (conscious dogs; [5])?
The QRS was 52.2 ± 3.2 ms.

And the QT (conscious dogs; [5])?
The QT was 234.5 ± 5.6 ms.

And the RR (conscious dogs; [5])?
The RR was 756.1 ± 29.4 ms.

What about the QTC (conscious dogs; intravenous 10 mg/kg, 30 min after administration, n = 6, Van de Water's formula) of the same compound?
The QTC was 255.7 ± 6.3 ms.

And the PQ (conscious dogs; [6])?
Its PQ is 119.8 ± 7.5 ms.

And the QRS (conscious dogs; [6])?
Its QRS is 47.9 ± 2.4 ms.

What about the QT (conscious dogs; [6]) of the same compound?
Its QT is 215.0 ± 7.5 ms.

What about the RR (conscious dogs; [6]) of the same compound?
Its RR is 596.2 ± 44.0 ms.

And the QTC (conscious dogs; per os 10 mg/kg, 1 h after administration, n = 7, Van de Water's formula)?
Its QTC is 250.1 ± 7.0 ms.

What about the melting point of the same compound?
The melting point was 216 to 219 °C.

What about the “Onset kinetics of Vmax block” value ([4]; after 1 min rest, stimulation cycle length 400 ms) of the same compound?
The value was 3.1.

And the “Effect on Vmax as a function of stimulation cycle length” value ([4]; dog ventricular muscle, steady-state stimulation)?
Its value is “decreased Vmax at cycle lengths shorter than 2000 ms”.
